These results are taken from PMC6835155, “Lessons from LIMK1 enzymology and their impact on inhibitor design” (Biochemical Journal, 2019).

In one assay the target is T1, LIMK1KD (Homo sapiens, UniProt P53667).
T1 construct: His6 (N, cleaved yes); made in house; host or cells: baculovirus; Sf9 for virus, TriEx insect cells for expression
Description: Differential (dynamic) scanning fluorimetry (DSF) assay, LIMK1KD. In kind it is binding. Conditions: for ΔTm at 10 µM: read-out: TM Shift LIMK1 (K).

A further assay deals with T2, LIMK2KD (Homo sapiens, UniProt P53671).
T2 construct: The cDNA coding for LIMK2 residues 330 to 632 was PCR amplified; His6 (N, cleaved yes); made in house; host or cells: baculovirus; Sf9 for virus, TriEx insect cells for expression
T2 sequence (P53671 330-632): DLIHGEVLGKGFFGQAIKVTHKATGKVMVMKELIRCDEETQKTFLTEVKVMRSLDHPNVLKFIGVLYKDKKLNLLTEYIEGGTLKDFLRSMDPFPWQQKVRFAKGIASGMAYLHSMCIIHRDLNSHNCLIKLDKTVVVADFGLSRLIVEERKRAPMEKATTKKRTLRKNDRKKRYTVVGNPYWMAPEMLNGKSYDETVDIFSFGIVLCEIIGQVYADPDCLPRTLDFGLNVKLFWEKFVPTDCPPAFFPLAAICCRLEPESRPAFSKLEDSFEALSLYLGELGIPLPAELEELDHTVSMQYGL
The experiment in a line: Differential (dynamic) scanning fluorimetry (DSF) assay, LIMK2KD. Type of assay: binding.

Setting [1] is: 2 µM LIMK1KD, compound 10 µM, single shot.
[2] abbreviates: LIMK2KD, compound 10 µM, single shot, read-out: TM Shift LIMK2 (K).
Where [3] appears, read: LIMK2KD, compound 10 µM, single shot.
The mark [4] stands for this setting: LIMK2KD, compound 10 µM, single shot, 10 µM.

Where two headings read alike, the source gives them in different places.

T1 sequence (P53667 330-637): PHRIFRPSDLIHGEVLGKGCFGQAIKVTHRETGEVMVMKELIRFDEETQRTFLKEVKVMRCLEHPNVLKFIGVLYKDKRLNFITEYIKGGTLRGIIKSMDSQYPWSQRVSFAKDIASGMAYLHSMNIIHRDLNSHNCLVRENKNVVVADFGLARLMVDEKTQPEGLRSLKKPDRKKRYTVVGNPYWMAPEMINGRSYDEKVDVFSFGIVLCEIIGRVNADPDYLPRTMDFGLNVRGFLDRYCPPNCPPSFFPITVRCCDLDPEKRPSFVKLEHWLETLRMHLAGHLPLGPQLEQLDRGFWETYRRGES

Regarding `Nc1nc(Nc2ccc(S(N)(=O)=O)cc2)nn1C(=O)c1c(F)cccc1F` [JNJ-7706621], the results for the ΔTm at 10 µM at LIMK1KD (setting [1]) and at LIMK2KD (setting [2]) were 8.2 °C and 5.8 °C, respectively.
`Cn1cc(-c2ccc3nnc(C(F)(F)c4ccc5ncccc5c4)n3n2)cn1` [JNJ-38877605]: the “TM Shift LIMK1 (K)” value on LIMK1KD (setting [1]) is recorded as -0.1 K. For the same compound, the “TM Shift LIMK2 (K)” value on LIMK2KD (setting [3]) is listed as -0.2 K.
For the compound `CCCNC(=O)Nc1ccc(Oc2ncnc3cc(OC)c(OC)cc23)cc1Cl` [KRN 633], the ΔTm at 10 µM on LIMK1KD (setting [1]) is 1.9 °C; at LIMK2KD (setting [2]), 1.4 °C.
The like results for `O=c1cc(-c2cccc3c2Sc2ccccc2S3)oc(N2CCOCC2)c1` [KU-55933 (ATM Kinase Inhibitor)] were, in that order, -0.2 °C and -0.1 °C.
The like results for `C[C@@H]1CN(CC(=O)Nc2ccc3c(c2)Cc2cccc(-c4cc(=O)cc(N5CCOCC5)o4)c2S3)C[C@H](C)O1` [KU-60019] were, in that order, 0.5 °C and 0.6 °C.
Regarding `COc1ccc(-c2ccc3c(N4CCOCC4)nc(N4C[C@@H](C)O[C@@H](C)C4)nc3n2)cc1CO` [KU-0063794], the values for the ΔTm at 10 µM at LIMK1KD (setting [1]) and on LIMK2KD (setting [2]) were 0.3 °C and 2 °C, respectively.
The like results for `O=C(c1ccc(/C=C/c2n[nH]c3ccccc23)cc1)N1CCNCC1` [KW-2449] were, in that order, 1.7 °C and 0.8 °C.
With `O=C(Cc1ccc(-c2ccc(OCCN3CCOCC3)cc2)cn1)NCc1ccccc1` [KX2-391], the “TM Shift LIMK1 (K)” value at LIMK1KD (setting [1]) came out at 1.7 K. In addition, on LIMK2KD (setting [3]), the “TM Shift LIMK2 (K)” value is reported as -0.3 K.
On the same counts, the results for `COc1cc2nccc(Oc3ccc(NC(=O)Nc4ccc(F)cc4F)c(F)c3)c2cc1OC` [Ki8751] are -0.1 K and 1.5 K.
Turning to `Cc1cc(Nc2ncc(Cl)c(Nc3ccccc3S(=O)(=O)C(C)C)n2)c(OC(C)C)cc1C1CCNCC1` [LDK378], the ΔTm at 10 µM was 0.2 °C at LIMK1KD (setting [1]) and -0.3 °C at LIMK2KD (setting [2]).
The like results for `O=c1cc(N2CCOCC2)oc2c(-c3ccccc3)cccc12` [LY294002] were, in that order, 0 °C and 0.4 °C.
Take `CC(C)(C)Cn1c(N)nc2ccc(-c3[nH]c(C(C)(C)C)nc3-c3ccc(F)cc3)nc21` [LY2228820]: the “TM Shift LIMK1 (K)” value on LIMK1KD (setting [1]) is 2.1 K. On LIMK2KD (setting [4]), the “TM Shift LIMK2 (K)” value is 4.4 K.
On to `Cc1cnc(NC(=O)Nc2cc(Br)c(C)cc2OC[C@@H]2CNCCO2)cn1` [LY2603618], for which, at LIMK1KD (setting [1]), the “TM Shift LIMK1 (K)” value is given as 0.1 K. Also, the “TM Shift LIMK2 (K)” value on LIMK2KD (setting [4]) worked out at 0.7 K.
With `Cc1cc(Nc2cc(CN3CCOCC3)c3nc(C)c(Cc4ccc(Cl)cc4F)n3n2)n[nH]1` [LY2784544], at LIMK1KD (setting [1]), the ΔTm at 10 µM came to 5 °C. Moreover, the “TM Shift LIMK2 (K)” value at LIMK2KD (setting [4]) came to 1.1 K.
In the case of `CCN1CCN(Cc2ccc(Nc3ncc(F)c(-c4cc(F)c5nc(C)n(C(C)C)c5c4)n3)nc2)CC1` [LY2835219], the ΔTm at 10 µM amounted to 0.9 °C at LIMK1KD (setting [1]) and 0.3 °C at LIMK2KD (setting [2]).
The like results for `C[C@@H](Oc1ccc2[nH]nc(/C=C/c3cnn(CCO)c3)c2c1)c1c(Cl)cncc1Cl` [LY2874455] were, in that order, 2.5 °C and 0.1 °C.
Turning to `CS(=O)(=O)CCNCc1ccc(-c2ccc3ncnc(Nc4ccc(OCc5cccc(F)c5)c(Cl)c4)c3c2)o1` [Lapatinib (GW-572016) Ditosylate, Lapatinib], the values for the ΔTm at 10 µM on LIMK1KD (setting [1]) and on LIMK2KD (setting [2]) were 0.2 °C and 1.8 °C, respectively.
On to `COc1cc2nccc(Oc3ccc(NC(=O)NC4CC4)c(Cl)c3)c2cc1C(N)=O` [Lenvatinib (E7080), Lenvatinib], for which the figures for the ΔTm at 10 µM at LIMK1KD (setting [1]) and on LIMK2KD (setting [2]) were 0.7 °C and 0.1 °C, respectively.
With `C[C@]12O[C@H](C[C@]1(O)CO)n1c3ccccc3c3c4c(c5c6ccccc6n2c5c31)CNC4=O` [Lestaurtinib], the ΔTm at 10 µM worked out at 5 °C at LIMK1KD (setting [1]) and 2 °C on LIMK2KD (read-out: TM Shift LIMK2 (K), LIMK2KD, compound 10 µM, single shot).
For the compound `Cc1ccc(F)c(NC(=O)Nc2ccc(-c3cccc4[nH]nc(N)c34)cc2)c1` [Linifanib], the values for the ΔTm at 10 µM on LIMK1KD (setting [1]) and on LIMK2KD (setting [2]) were 2 °C and 5 °C, respectively.
For the compound `C[C@]1(O)C[C@@H](c2nc(-c3ccc4ccc(-c5ccccc5)nc4c3)c3c(N)nccn32)C1` [Linsitinib], the “TM Shift LIMK1 (K)” value is reported as 0.8 K at LIMK1KD (setting [1]) and 0.2 K on LIMK1KD (2 µM LIMK1KD, compound 10 µM, single shot, listed as OSI-906 (Linsitinib)). The “TM Shift LIMK2 (K)” value at LIMK2KD (LIMK2KD, compound 10 µM, single shot, listed as OSI-906 (Linsitinib), 10 µM) amounted to 0.7 K. The ΔTm at 10 µM at LIMK2KD (setting [2]) stood at 0.9 °C.
As for `Cn1cnc2c(F)c(Nc3ccc(Br)cc3F)c(C(=O)NOCCO)cc21` [MEK162 (ARRY-162, ARRY-438162)], the ΔTm at 10 µM at LIMK1KD (setting [1]) is 0.4 °C; on LIMK2KD (setting [2]) it was 2.1 °C.
On the same counts, the results for `COCCNCc1ccc(-c2cc3nccc(Oc4ccc(NC(=S)NC(=O)Cc5ccc(F)cc5)cc4F)c3s2)nc1` [MGCD-265] are 3.6 °C and 1.1 °C.
The like results for `C=CCn1c(=O)c2cnc(Nc3ccc(N4CCN(C)CC4)cc3)nc2n1-c1cccc(C(C)(C)O)n1` [MK-1775] were, in that order, 1.2 °C and 0 °C.
Take `Cl.Cl.NC1(c2ccc(-c3nc4ccn5c(=O)[nH]nc5c4cc3-c3ccccc3)cc2)CCC1` [MK-2206 2HCl]: the “TM Shift LIMK1 (K)” value on LIMK1KD (setting [1]) was 0.4 K. Further, the “TM Shift LIMK2 (K)” value at LIMK2KD (setting [3]) is listed as -1.1 K.
Take `CN(C[C@@H]1COCCO1)S(=O)(=O)Nc1ccc2ccc3ncc(-c4cnn(C)c4)cc3c(=O)c2c1` [MK-2461]: the ΔTm at 10 µM at LIMK1KD (setting [1]) stood at 0.8 °C; at LIMK2KD (setting [2]) it was 0.3 °C.
On to `O=C(O)[C@]1(Cc2cccc(Nc3nccs3)n2)CC[C@@H](Oc2cccc(Cl)c2F)CC1` [MK-5108 (VX-689)], for which the figures for the ΔTm at 10 µM at LIMK1KD (setting [1]) and at LIMK2KD (setting [2]) were 1.5 °C and 0.9 °C, respectively.
For the compound `O=C(c1cccc(Cl)c1F)N1CCN(Cc2cccc(Nc3nccs3)n2)CC1` [MK-8745], the “TM Shift LIMK1 (K)” value on LIMK1KD (setting [1]) amounted to 1.0 K. In addition, the “TM Shift LIMK2 (K)” value on LIMK2KD (setting [3]) is -0.3 K.
Consider `Cn1cc(-c2cnn3c(N)c(Br)c([C@@H]4CCCNC4)nc23)cn1` [MK-8776 (SCH 900776)], for which the ΔTm at 10 µM on LIMK1KD is 1.8 °C; on LIMK2KD (read-out: TM Shift LIMK2 (K)), 2.2 °C.
On to `O=C(O)c1ccc(Nc2ncc3c(n2)-c2ccc(Cl)cc2C(c2c(F)cccc2F)=NC3)cc1` [MLN8054], for which the ΔTm at 10 µM is -0.4 °C at LIMK1KD (setting [1]) and 1 °C at LIMK2KD (setting [2]).
On the same counts, the results for `Cc1ccc(NC(=O)c2ccc(CN3CCN(C)CC3)cc2)cc1Nc1nc(-c2cccnc2)cs1` [Masitinib (AB1010), Masitinib] are 0.4 °C and 0 °C.
On the same counts, the results for `CO[C@@H]1[C@H](N(C)C(=O)c2ccccc2)C[C@H]2O[C@]1(C)n1c3ccccc3c3c4c(c5c6ccccc6n2c5c31)C(=O)NC4` [Midostaurin] are 0.1 °C and 0 °C.
With `CNC(=O)c1nn(C)c2c1C(C)(C)Cc1cnc(Nc3ccc(N4CCN(C)CC4)cc3)nc1-2` [Milciclib (PHA-848125), Milciclib], the ΔTm at 10 µM is 0.2 °C on LIMK1KD (setting [1]) and 0.6 °C at LIMK2KD (setting [2]).
Consider `N#CCNC(=O)c1ccc(-c2ccnc(Nc3ccc(N4CCOCC4)cc3)n2)cc1` [Momelotinib], for which, at LIMK1KD (setting [1]), the “TM Shift LIMK1 (K)” value is listed as 6.3 K. Besides, at LIMK2KD (setting [4]), the “TM Shift LIMK2 (K)” value was 4.2 K.
For the compound `CC1(C)CNc2cc(NC(=O)c3cccnc3NCc3ccncc3)ccc21` [Motesanib Diphosphate (AMG-706), Motesanib Diphosphate], the ΔTm at 10 µM on LIMK1KD (setting [1]) is 0.6 °C; on LIMK2KD (setting [2]), 0.5 °C.
The like results for `FC(F)(F)c1ccc(/C=C/c2nc(COc3ccc(CCCCn4ccnn4)cc3)co2)cc1` [Mubritinib (TAK 165), Mubritinib] were, in that order, 0.6 °C and -0.4 °C.
For `CCN(CC)CCCC(C)Nc1nc(C)cc(Nc2ccc3nc(C)cc(N)c3c2)n1` (stereo not drawn) [NSC 23766], the “TM Shift LIMK1 (K)” value on LIMK1KD (setting [1]) is given as 0.0 K. For the same compound, the “TM Shift LIMK2 (K)” value at LIMK2KD (setting [3]) is -2.2 K.
Take `Nc1nc(N)c(N=O)c(OCC2CCCCC2)n1` [NU6027]: the ΔTm at 10 µM on LIMK1KD (setting [1]) is 0.8 °C; at LIMK2KD (setting [2]) it was -0.9 °C.
For `O=c1cc(N2CCOCC2)oc2c1ccc1ccccc12` [NU7026], the “TM Shift LIMK1 (K)” value at LIMK1KD (setting [1]) was -0.7 K. The “TM Shift LIMK2 (K)” value on LIMK2KD (setting [3]) is given as 3.0 K.
Turning to `O=c1cc(N2CCOCC2)oc2c(-c3cccc4c3sc3ccccc34)cccc12` [NU7441 (KU-57788)], the “TM Shift LIMK1 (K)” value at LIMK1KD (setting [1]) was 0.5 K. For the same compound, the “TM Shift LIMK2 (K)” value on LIMK2KD (setting [3]) was -0.9 K.
On the same counts, the results for `Nc1ncnc2c1c(-c1cccc(OCc3ccccc3)c1)cn2C1CC(CN2CCCC2)C1` (stereo not drawn) [NVP-ADW742] are 0.2 K and 0.1 K.
For `Nc1ncnc2c1c(-c1cccc(OCc3ccccc3)c1)cn2[C@H]1C[C@@H](CN2CCC2)C1` [NVP-AEW541], the ΔTm at 10 µM was -0.2 °C at LIMK1KD (setting [1]) and 0.4 °C on LIMK2KD (setting [2]).
Turning to `CCN1CCN(c2ccc(Nc3cc(N(C)C(=O)Nc4c(Cl)c(OC)cc(OC)c4Cl)ncn3)cc2)CC1` [NVP-BGJ398], the “TM Shift LIMK1 (K)” value at LIMK1KD (setting [1]) is 0.0 K; at LIMK1KD (2 µM LIMK1KD, compound 10 µM, single shot, listed as BGJ398 (NVP-BGJ398)) it was 0.7 K. Moreover, the “TM Shift LIMK2 (K)” value at LIMK2KD (setting [4]) is on record as -0.5 K; on LIMK2KD (LIMK2KD, compound 10 µM, single shot, listed as BGJ398 (NVP-BGJ398), 10 µM) it was 0.5 K.
Consider `Cc1ccc(C(=O)Nc2cccc(C(F)(F)F)c2)cc1Nc1nc(-c2cccnc2)nc2c1cnn2C` [NVP-BHG712], for which, at LIMK1KD (setting [1]), the “TM Shift LIMK1 (K)” value was -0.2 K. The “TM Shift LIMK2 (K)” value at LIMK2KD (setting [3]) amounted to 1.6 K.
On the same counts, the results for `Fc1cc(-c2cccc3ncc(-c4cnn(C5CCNCC5)c4)nc23)cc(F)c1CN1CCOCC1` [NVP-BSK805 2HCl] are 1.5 K and 0.2 K.
The like results for `Cn1cc(-c2ccc3ncc(Cc4ccc5ncccc5c4)n3n2)cn1` [NVP-BVU972] were, in that order, -0.5 K and 2.9 K.
